The target in test [1] is T1, Rbp47b-TAP protein (Arabidopsis thaliana, UniProt Q0WW84).
T1 construct: expressed in transfected cells; host or cells: Arabidopsis cell suspension culture, Agrobacterium-transformed
T1 sequence (Q0WW84 1-435): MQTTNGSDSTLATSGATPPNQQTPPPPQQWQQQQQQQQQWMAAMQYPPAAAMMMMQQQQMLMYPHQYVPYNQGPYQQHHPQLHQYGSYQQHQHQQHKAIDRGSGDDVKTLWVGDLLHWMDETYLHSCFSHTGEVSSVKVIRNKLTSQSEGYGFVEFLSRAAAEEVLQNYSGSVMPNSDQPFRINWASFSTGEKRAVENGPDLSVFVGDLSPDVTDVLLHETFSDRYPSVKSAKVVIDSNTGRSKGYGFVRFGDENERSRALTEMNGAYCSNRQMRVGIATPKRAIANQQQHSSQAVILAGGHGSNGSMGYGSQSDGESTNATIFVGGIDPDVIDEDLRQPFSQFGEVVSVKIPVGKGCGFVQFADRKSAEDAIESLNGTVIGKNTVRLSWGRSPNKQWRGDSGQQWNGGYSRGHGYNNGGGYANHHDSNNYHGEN
In words: Cellular thermal shift assay (CETSA) in native Arabidopsis lysate. It counts as binding. Conditions: analogous experiment, native protein lysate. As for the experimental part: To this end we set out to identify the binding protein partners of 2′,3′-cAMP by applying affinity purification (AP) using agarose beads, with 2′,3′-cAMP linked via the NH2 group of the purine ring. After incubation of the beads with total soluble-protein extracts from A. thaliana cell suspension cultures (cf. Materials and Methods) sequential washings with ADP, GDP, 5′-AMP, and finally 2′,3′-cAMP were performed, and the proteins eluting in the different washings were analyzed by LC-MS/MS proteomics. Proteins eluting from the agarose beads exclusively with 2′,3′-cAMP but absent in any of the other eluents (ADP, GDP, or 5′-AMP; FIG. 10A) were defined as 2′,3′-cAMP-binding. Applying this stringent criterion only one protein remained: the polyadenylate-binding protein Rbp47b. We reasoned that the putative formation of Rbp47b-2′,3′-cAMP complexes in vivo should be reflected by largely overlapping elution profiles of the two components in a size-exclusion experiment (SEC), as was indeed the case (FIG. 10B). To obtain further and independent evidence for the formation of a complex between Rbp47b and 2′,3′-cAMP, we performed a cellular thermal shift assay (CETSA) (Franken et al. (2015) Thermal proteome profiling for unbiased identification of direct and indirect drug targets using multiplexed quantitative mass spectrometry. Nat Protoc 10: 1567-1593). CESTA is a method used in the drug research to verify ligand-receptor binding in the native cellular lysate, based on the observation that presence of the ligand changes thermal stability of the protein receptor. Herein, we adapted the protocol to be suitable for the plant material and an endogenous […] metabolite. We used Arabidopsis cells expressing a tagged version of the Rbp47b, so that Rbp47b level could be easily detected with the anti-tag antibody. […] Taken together, three independent experimental approaches (AP, SEC, and CETSA) provide evidence for the binding of 2′,3′-cAMP to Rbp47b in the native Arabidopsis lysate. […]

The target in test [2] is T2, Rbp47b (Arabidopsis thaliana, UniProt Q0WW84).
T2 sequence (Q0WW84 1-435): T1 sequence (Q0WW84 1-435)
Kind of test: MST measurement of ligand binding to recombinant Rbp47b. The source says: We therefore attempted to determine the in vitro binding affinity biophysically using micro-scale thermophoresis (MST) (Jerabek-Willemsen et al. (2011) Molecular interaction studies using microscale thermophoresis. Assay Drug Dev Technol 9: 342-353). MST exploits the effect of size, charge, and hydration shell on the movement of molecules in a temperature gradient. Complex formation resulting in alteration of at least one of the three parameters leads to differential movement, from which the binding affinity can be determined. For the purpose of the MST experiment, Rbp47b was expressed in and purified from E. coli. […] The measured Kd value also corresponds to the ˜20 μM concentration of 2′,3′-cAMP measured in the native Arabidopsis lysate (FIG. 11B).
TIA1 protein was purchased from Origene (Herford, Germany). Rbp47b was cloned as a C-terminal GFP fusion (to increase protein solubility) into the E. coli expression vector pDEST14 containing His6-tag at the N-terminal of the Gateway (Karlsruhe, Germany) cassette. […]
Next day, cells were disrupted with an Avestin (Mannheim, Germany) EmulsiFlex C3 homogenizer and the protein was purified using imidazole-gradient purification in Ni-NTA agarose (Qiagen 34080, Hilden, Germany). […] Protein purity was assessed by SDS-PAGE and protein identification was done using western blot using anti-His6 antibodies. […]

The target of test [3] is T3, TIA1 (Homo sapiens, UniProt P31483).
T3 construct: purchased Origene (Herford, Germany)
T3 sequence (P31483 1-386): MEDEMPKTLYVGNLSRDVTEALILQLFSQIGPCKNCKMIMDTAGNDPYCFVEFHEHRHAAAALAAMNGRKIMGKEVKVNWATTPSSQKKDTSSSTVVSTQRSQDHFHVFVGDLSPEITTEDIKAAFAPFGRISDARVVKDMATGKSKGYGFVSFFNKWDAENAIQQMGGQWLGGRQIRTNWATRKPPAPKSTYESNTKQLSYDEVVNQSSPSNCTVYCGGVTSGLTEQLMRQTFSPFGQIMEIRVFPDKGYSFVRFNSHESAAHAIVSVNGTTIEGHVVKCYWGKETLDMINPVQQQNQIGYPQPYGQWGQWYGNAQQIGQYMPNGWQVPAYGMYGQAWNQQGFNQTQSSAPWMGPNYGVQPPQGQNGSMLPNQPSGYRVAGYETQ
Kind of test: MST measurement of ligand binding to recombinant TIA1. Here is the method: Expecting such a basic role of 2′,3′-cAMP to be conserved, we performed similar analysis with TIA1, the human functional homolog of Rbp47b. TIA1 was labeled and its interaction with 2′,3′-cAMP was determined using MST.
TIA1 protein was purchased from Origene (Herford, Germany). Rbp47b was cloned as a C-terminal GFP fusion (to increase protein solubility) into the E. coli expression vector pDEST14 containing His6-tag at the N-terminal of the Gateway (Karlsruhe, Germany) cassette. Rosetta cells expressing His6-Rbp47b-GFP were grown at 28° C. overnight and next day were moved to Terrific Broth medium supplied with 1% sucrose and relevant antibiotics. Cultures at OD 0.4 were induced by addition of 0.1 mM IPTG and transferred to 16° C. for overnight incubation.
MST measurements were performed using a Monolith NT.115 instrument (NanoTemper, München, Germany). Capillaries were loaded into the instrument as sets of 13-16 point ligand titrations. Proteins (Rb47b and TIA1) were labeled in phosphate buffer (PBS) using Monolith™ protein labeling kit RED-NHS (amine reactive; MO-L001) according to the manufacturers instruction. Excitation was optimized by varying the LED power to yield emission intensities above 200 AU, corresponding to 10-50 nM labeled protein. Monolith power was set to 60%. Ligands [2′,3′-cAMP (Sigma A9376)] and [3′,5′-cAMP (Sigma A6885)] were dissolved in PBS. […]

Test [4] deals with T4, gibberellin receptor GID1 (Oryza sativa subsp. japonica, UniProt Q6L545).
T4 sequence (Q6L545 1-354): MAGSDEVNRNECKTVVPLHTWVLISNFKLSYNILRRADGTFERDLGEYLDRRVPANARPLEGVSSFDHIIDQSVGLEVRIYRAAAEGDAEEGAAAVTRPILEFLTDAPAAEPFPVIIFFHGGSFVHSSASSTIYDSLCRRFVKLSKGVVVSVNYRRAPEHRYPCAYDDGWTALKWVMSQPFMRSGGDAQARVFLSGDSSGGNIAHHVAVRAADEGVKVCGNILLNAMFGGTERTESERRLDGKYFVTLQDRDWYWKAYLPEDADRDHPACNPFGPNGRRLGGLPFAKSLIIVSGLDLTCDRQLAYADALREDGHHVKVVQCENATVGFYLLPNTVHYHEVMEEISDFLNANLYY
Conditions: Ueguchi-Tanaka et al. (2005); read-out: Kd of binding to GID1; cited from earlier work.

The target in test [5] is T5, FBA6 (Arabidopsis thaliana, UniProt Q9SJQ9).
T5 construct: made in house; host or cells: E. coli
T5 sequence (Q9SJQ9 1-358): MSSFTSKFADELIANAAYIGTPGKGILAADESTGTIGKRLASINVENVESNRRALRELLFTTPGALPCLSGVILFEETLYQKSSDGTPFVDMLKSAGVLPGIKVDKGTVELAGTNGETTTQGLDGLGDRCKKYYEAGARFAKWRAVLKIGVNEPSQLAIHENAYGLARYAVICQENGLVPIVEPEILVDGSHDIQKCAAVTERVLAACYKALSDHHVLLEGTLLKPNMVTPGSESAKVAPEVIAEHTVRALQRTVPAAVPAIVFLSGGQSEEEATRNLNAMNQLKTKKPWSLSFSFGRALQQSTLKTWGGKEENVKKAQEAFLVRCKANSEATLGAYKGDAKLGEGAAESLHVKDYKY
Kind of test: Microscale thermophoresis (MST) binding to FBA6 expressed and purified from E. coli. The source says: FBA6 protein was expressed and purified from E. coli. MST uses the intristic tendency of all the biological molecules to move in the temperature gradient. This movement is dependent on the molecule size, charge and hydration shell. Complex formation affects at least one of the three parameters changing the movement and indicating binding event. […] The results obtained point to both strong and specific interaction.
For orientation: Microscale thermophoresis detects binding through changes in fluorescence in a small temperature gradient.

The target of test [6] is T6, Methylthioribose-1-phosphate isomerase (MTR-1-P) (Arabidopsis thaliana, UniProt Q9ZUG4).
T6 sequence (Q9ZUG4 1-374): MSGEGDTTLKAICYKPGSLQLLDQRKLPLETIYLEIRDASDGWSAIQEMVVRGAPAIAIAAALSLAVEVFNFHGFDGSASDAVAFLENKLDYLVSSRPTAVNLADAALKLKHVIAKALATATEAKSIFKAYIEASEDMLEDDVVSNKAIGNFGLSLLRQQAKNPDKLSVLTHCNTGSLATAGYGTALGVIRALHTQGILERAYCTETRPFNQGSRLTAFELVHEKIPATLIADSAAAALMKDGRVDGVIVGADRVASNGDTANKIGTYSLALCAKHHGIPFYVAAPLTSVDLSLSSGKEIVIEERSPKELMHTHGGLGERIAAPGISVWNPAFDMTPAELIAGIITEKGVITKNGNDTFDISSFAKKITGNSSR
Kind of test: Microscale thermophoresis (MST) assay, MTA-MTR-1-P interaction. It counts as binding. Conditions: mean±SD, n=3.

Test [7] addresses T7, 3-methyl-2 oxobutanoate hydroxymethyl-transferase 1 (KPHMT1) (Arabidopsis thaliana, UniProt O82357).
T7 sequence (O82357 49-347): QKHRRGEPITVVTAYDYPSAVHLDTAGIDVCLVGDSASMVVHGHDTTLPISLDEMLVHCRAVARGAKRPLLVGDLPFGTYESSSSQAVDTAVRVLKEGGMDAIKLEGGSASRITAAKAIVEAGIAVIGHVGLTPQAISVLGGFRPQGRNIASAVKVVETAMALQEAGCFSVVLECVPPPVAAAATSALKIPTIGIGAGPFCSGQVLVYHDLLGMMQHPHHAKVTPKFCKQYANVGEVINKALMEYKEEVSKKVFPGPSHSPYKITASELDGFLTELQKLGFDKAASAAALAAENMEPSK
Kind of test: Microscale thermophoresis (MST) assay, Panthotenate-KPHMT1 interaction. It counts as binding. Conditions: mean±SD, n=3. Here is the method:
B) Panthotenate-KPHMT1 interaction was tested by Microscale thermophoresis (MST) assay. […] Data are mean±SD, n=3.

pKd: −log10 of the molar value. Where two headings read alike, the source gives them in different places. Peptide text beside a SMILES is read from it.

The term pKd denotes −log10 of the Kd, conventionally taken in molar units.

As to `Nc1ncnc2c1ncn2[C@@H]1O[C@@H]2COP(=O)(O)O[C@H]2[C@H]1O` [3′,5′-cAMP, reference compound], the “effect on thermal stability of Rbp47b (in words)” value in test [1] is recorded as “No such effect was observed”. For the same compound, the “binding to Rbp47b (in words)” value in test [2] is recorded as “did not observe any binding”. The “binding to TIA1 (in words)” value in test [3] is given as “not”.

For the compound `CC1C[C@]23C[C@H]1CCC2[C@]12CC[C@H](O)[C@](C)(C(=O)O1)[C@H]2[C@@H]3C(=O)O` (stereo partly drawn) [16,17-dihydro-GA4], the pKd in test [4] is 5.85.

Take `NCC(=O)N1CCC[C@H]1C(=O)O` [Gly-Pro, L-Gly-L-Pro] (H-Gly-Pro-OH): the pKd in test [5] was roughly 6.70.

The compound `CSC[C@H]1O[C@@H](n2cnc3c(N)ncnc32)[C@H](O)[C@@H]1O` [MTA, Methylthioadenosine] showed a pKd in test [6] of 5.57.

Consider `CC(C)(CO)[C@@H](O)C(=O)NCCC(=O)O` [Panthotenate, Pantothenic acid], for which the pKd in test [7] is 3.43.

Take `O=C(O)CNC(=O)[C@@H]1CCCN1` [Pro-Gly] (H-Pro-Gly-OH): the “binding to FBA6 (in words)” value in test [5] (MST) is given as “not”.

On to dihydroxyacetone phosphate [DHAP], for which the negative logarithm of the Kd (pKd) in test [5] (MST, FBA6 purified from E. coli, read-out: Kd of binding to FBA6) is roughly 6.70.

Values taken from US10976310B2, “Ligand identification by co-fractionation” (MAX-PLANCK-GESELLSCHAFT ZUR FÖRDERUNG DER WISSENSCHAFTEN …, priority 2016, dated 2021).
